pKd: −log10 of the molar value.
How the values were obtained:
[1] = Lipophilicity, log D by shake-flask method (1-octanol/PBS pH 7.4); format: physicochemical; conditions: shake-flask, Table 17, mean ± SD
Description: The radiotracer (1 μM) was added to a 50:50 pre-saturated mixture of 1-octanol and phosphate buffered saline (PBSpH 7.4). The solution was vortexed for 30 min and then centrifuged at 3,000 rpm to achieve a phase separation. Aliquots from each phase were collected and measured in a gamma-counter. The distribution coefficient was calculated as the average of the logarithmic values of the ratio between the radioactivity in the organic and the PBS phase.
Table 17. Lipophilicity expressed as the log distribution coefficient D (log D(Octanol/PBS pH7.4)) of ^61Cu-radiotracers versus ^68Ga-radiotracers (reference radiotracers).
In a pre-lubricated Eppendorf tube, a pre-saturated mixture of 500 μL of 1-octanol and 500 μL of PBS pH 7.4 (phosphate-buffered saline) were added. An aliquot of […] in 10 μL of the radioligand was added to this mixture, shaken for 30 min, and then centrifuged at 3000 rcf for 10 min to achieve phase separation. Aliquots of 100 μL were removed from the 1-octanol and from the PBS phases, and the activity was measured in a […]. The partition coefficient was calculated as the average log ratio value of the radioactivity in the organic fraction and PBS fraction.

[2] = test system: LNCaP xenografts; assay: Quantitative biodistribution in LNCaP xenografted mice; format: in vivo; conditions: for Biodistribution Adrenal / Biodistribution Blood / Biodistribution Bone / Biodistribution Heart / Biodistribution Intestine / Biodistribution Kidney / Biodistribution LNCaP-tumor / Biodistribution Liver / Biodistribution Lung / Biodistribution Muscle / Biodistribution Pancreas / Biodistribution Salivary gland / Biodistribution Spleen / Biodistribution Stomach / Ratio Tumor/Blood / Ratio Tumor/Kidney / Ratio Tumor/Liver / Ratio Tumor/Muscles: LNCap xenograft mice
Description: The mice were randomly distributed in groups and euthanized at 1 and at 4 hours post-injection. The organs of interest were collected, rinsed, blotted, weighed and counted in a gamma counter. The results are expressed as percentage of injected activity per gram (% IA/g), representing the mean±standard deviation of n=4-8 mice per group and they were obtained by extrapolation from counts of an aliquot taken from the injected solution as standard.
The biodistribution of the [^61Cu]Cu-NODAGA radiotracers was compared with the reference compounds used in patients under identical experimental conditions. The mice were randomly distributed in groups, injected with the radiotracer under investigation and euthanized at 1 and at 4 hours post-injection of the radiotracers under investigation. The organs of interest were collected, rinsed, blotted, weighed and counted in a gamma counter. The results are expressed as percentage of injected activity per gram (% IA/g), representing the mean±standard deviation of all mice per group and they were obtained by extrapolation from counts of an aliquot taken from the injected solution as standard.

[3] = target: hFAP (Homo sapiens (Human), UniProt Q12884); assay: Saturation binding on isolated HEK-293.hFAP cell membranes; parameters: Bmax: unit not given here; conditions: 37° C.
hFAP, sequence (Q12884 whole entry): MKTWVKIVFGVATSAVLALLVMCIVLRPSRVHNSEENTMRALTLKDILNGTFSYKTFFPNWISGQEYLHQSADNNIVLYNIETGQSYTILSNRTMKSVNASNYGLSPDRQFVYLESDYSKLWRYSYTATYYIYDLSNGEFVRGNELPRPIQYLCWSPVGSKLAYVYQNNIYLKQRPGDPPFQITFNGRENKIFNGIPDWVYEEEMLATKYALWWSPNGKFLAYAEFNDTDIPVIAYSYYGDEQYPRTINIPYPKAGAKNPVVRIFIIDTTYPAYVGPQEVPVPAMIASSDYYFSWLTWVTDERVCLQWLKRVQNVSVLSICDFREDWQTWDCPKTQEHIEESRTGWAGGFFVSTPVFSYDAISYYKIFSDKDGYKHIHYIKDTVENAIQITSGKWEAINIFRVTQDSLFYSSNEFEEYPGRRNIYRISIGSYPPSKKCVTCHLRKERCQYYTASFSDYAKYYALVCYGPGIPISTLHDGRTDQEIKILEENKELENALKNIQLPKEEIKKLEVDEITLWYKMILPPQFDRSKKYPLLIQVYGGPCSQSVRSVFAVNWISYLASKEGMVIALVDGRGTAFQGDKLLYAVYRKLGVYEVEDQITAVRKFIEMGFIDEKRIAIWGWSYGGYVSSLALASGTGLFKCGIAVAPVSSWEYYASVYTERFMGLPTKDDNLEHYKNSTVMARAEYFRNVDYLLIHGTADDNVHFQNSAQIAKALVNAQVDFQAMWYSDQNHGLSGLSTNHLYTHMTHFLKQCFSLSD
Description: The cells were homogenized using Ultra-Turrax, and the homogenized suspension was centrifuged at 500×g for 10 min at 4° C. The supernatant was collected in centrifuge tubes (Beckman Coulter Inc., Brea, CA, USA). This procedure was then repeated 5 times. The collected supernatant was centrifuged in an ultra-centrifuge (Beckman) at 4° C. for 55 min at 49,000×g. Then, the pellet was re-suspended in 10 mM ice-cold HEPES buffer (pH 7.5), aliquoted, and stored at −80° C. The protein concentration of those membrane suspensions was determined by the Bradford method, BSA as the standard.
Each assay tube contained 170 μL of binding buffer (20 mM HEPES, pH 7.4, containing 4 mM μgCl2, 0.2% BSA, 20 μg/L bacitracin, 20 μg/L PMSF and 200,000 KIU/L aprotinin). The incubation was initiated by adding 30 μL of radioligand solution at 10 times the final concentration and 100 μL of cell membrane suspension to yield 10 μg of protein per well. For the determination of the non-specific binding, 140 μL of the above binding buffer was added along with 30 μL of FAPI-46 to obtain (0.1 mM). Bound fractions were plotted versus the corresponding radioligand concentration at equilibrium. The dissociation constant (KD) and maximal binding capacity (Bmax) values were calculated using GraphPad Software Inc., Prism 7, San Diego, CA, USA (Table 33 and FIG. 21).

[4] = test system: HT-1080.hFAP and HT-1080.wt xenografts; assay: Quantitative biodistribution in HT-1080.hFAP and HT-1080.wt xenografted mice; format: in vivo; conditions: for Biodistribution HT-1080.wt: FAP-negative tumor; for Biodistribution HT-1080.hFAP: FAP-positive tumor
Description: The tumors were allowed to grow to an average volume of 100-200 mm3.
Biodistribution Studies: The xenografted mice were randomized (n=5 per group) and injected intravenously via the tail vein with the ^61Cu-labeled radioligands (100 μL, […], 0.8-1MBq). Mice were euthanized 1h and 4h pi. by CO2 asphyxiation. Organs of interest and blood were collected, rinsed of excess blood, blotted dry, weighed, and counted in a […]. The samples were counted against a suitably diluted aliquot of the injected solution as the standard and the results are expressed as the percentage of the injected activity per gram of tissue (0% I.A./g)+SD.

[5] = 1 h p.i., HT-1080.hFAP and HT-1080.wt xenografts
[6] = 4 h p.i., HT-1080.hFAP and HT-1080.wt xenografts

## O=C(O)CC[C@H](NC(=O)N[C@@H](CCCCNC(=O)[C@H](Cc1ccc2ccccc2c1)NC(=O)c1ccc(CNC(=O)[C@H](CCC(=O)O)NC(=O)[C@H](CCC(=O)O)NC(=O)c2ccc([18F])nc2)cc1)C(=O)O)C(=O)O [[^18F]PSMA-1007]
[1]
  log D(O/PBS pH 7.4): −3.02 ± 0.11
[2]; 4h p.i., LNCaP xenograft mice, comparison with reference radiotracer, p=0.0145
  tumor uptake: 6.28±2.19 % IA/g
[2]; 1 h after injection
  Biodistribution Adrenal: 7.18 ± 2.20 % IA/g
  Biodistribution Blood: 0.41 ± 0.11 % IA/g
  Biodistribution Bone: 0.94 ± 0.13 % IA/g
  Biodistribution Heart: 1.25 ± 0.29 % IA/g
  Biodistribution Intestine: 1.04 ± 0.33 % IA/g
  Biodistribution Kidney: 100 ± 17 % IA/g
  Biodistribution LNCaP-tumor: 9.70 ± 2.57 % IA/g
  Biodistribution Liver: 0.93 ± 0.26 % IA/g
  Biodistribution Lung: 2.08 ± 0.24 % IA/g
  Biodistribution Muscle: 0.53 ± 0.09 % IA/g
  Biodistribution Pancreas: 1.32 ± 0.58 % IA/g
  Biodistribution Salivary gland: 2.54 ± 0.72 % IA/g
  Biodistribution Spleen: 11.0 ± 1.1 % IA/g
  Biodistribution Stomach: 0.75 ± 0.15 % IA/g
  Ratio Tumor/Blood: 25.8 ± 11.5
  Ratio Tumor/Kidney: 0.10 ± 0.03
  Ratio Tumor/Liver: 11.3 ± 4.5
  Ratio Tumor/Muscles: 19.2 ± 6.5
[2]; 4 h after injection
  Biodistribution Adrenal: 8.03 ± 2.66 % IA/g
  Biodistribution Blood: 0.17 ± 0.04 % IA/g
  Biodistribution Bone: 0.62 ± 0.11 % IA/g
  Biodistribution Heart: 0.53 ± 0.23 % IA/g
  Biodistribution Intestine: 0.43 ± 0.22 % IA/g
  Biodistribution Kidney: 132 ± 9 % IA/g
  Biodistribution LNCaP-tumor: 6.28 ± 2.19 % IA/g
  Biodistribution Liver: 0.32 ± 0.16 % IA/g
  Biodistribution Lung: 1.61 ± 0.58 % IA/g
  Biodistribution Muscle: 0.27 ± 0.11 % IA/g
  Biodistribution Pancreas: 0.80 ± 0.32 % IA/g
  Biodistribution Salivary gland: 1.62 ± 0.43 % IA/g
  Biodistribution Spleen: 8.33 ± 2.11 % IA/g
  Biodistribution Stomach: 0.47 ± 0.16 % IA/g
  Ratio Tumor/Blood: 42.7 ± 16.4
  Ratio Tumor/Kidney: 0.04 ± 0.01
  Ratio Tumor/Liver: 18.4 ± 8.5
  Ratio Tumor/Muscles: 20.1 ± 2.5

## CN(C(=O)CCC(=O)NCCNC(=O)CC[C@H](C(=O)O)N1CCN2CCN(CC1)CC(=O)[O][61Cu][O]C(=O)C2)c1ccc2nccc(C(=O)NCC(=O)N3CC(F)(F)C[C@H]3C#N)c2c1 [[^61Cu]Cu-NODAGA-F2]
[3]
  Bmax: 7.7-8.4
[4]; 1 hour p.i.
  Biodistribution Heart: 0.6 ± 0.1 % I.A./g
  Biodistribution Intestine: 0.5 ± 0.1 % I.A./g
  Biodistribution Liver: 0.6 ± 0.1 % I.A./g
  Biodistribution Lung: 0.8 ± 0.1 % I.A./g
  Biodistribution Muscle: 0.9 ± 0.1 % I.A./g
  Biodistribution Spleen: 0.4 ± 0.1 % I.A./g
  Biodistribution Stomach: 0.6 ± 0.1 % I.A./g
  Biodistribution HT-1080.wt: 1.4 ± 0.2 % I.A./g
  Biodistribution HT-1080.hFAP: 3.5 ± 1.0 % I.A./g
[4]; [5]
  Biodistribution Adrenal: 1.5 ± 0.3 % IA/g
  Biodistribution Blood: 1.2 ± 0.1 % IA/g
  Biodistribution Femur: 2.4 ± 0.3 % IA/g
  Biodistribution HT1080.hFAP (FAP-positive tumor): 3.5 ± 1.0 % IA/g
  Biodistribution HT1080.wt (FAP-negative tumor): 1.4 ± 0.2 % IA/g
  Biodistribution Heart: 0.6 ± 0.1 % IA/g
  Biodistribution Intestine: 0.5 ± 0.1 % IA/g
  Biodistribution Kidney: 1.1 ± 0.1 % IA/g
  Biodistribution Liver: 0.6 ± 0.1 % IA/g
  Biodistribution Lung: 0.8 ± 0.1 % IA/g
  Biodistribution Muscle: 0.9 ± 0.1 % IA/g
  Biodistribution Pancreas: 1.1 ± 0.2 % IA/g
  Biodistribution Spleen: 0.4 ± 0.1 % IA/g
  Biodistribution Stomach: 0.6 ± 0.1 % IA/g
[4]; 4 hours p.i.
  Biodistribution Adrenal: 0.3 ± 0.1 % I.A./g
  Biodistribution Blood: 0.5 ± 0.1 % I.A./g
  Biodistribution Heart: 0.3 ± 0.0 % I.A./g
  Biodistribution Intestine: 0.3 ± 0.1 % I.A./g
  Biodistribution Kidneys: 1.0 ± 0.1 % I.A./g
  Biodistribution Liver: 0.6 ± 0.1 % I.A./g
  Biodistribution Lung: 0.4 ± 0.0 % I.A./g
  Biodistribution Muscle: 0.4 ± 0.1 % I.A./g
  Biodistribution Pancreas: 0.5 ± 0.0 % I.A./g
  Biodistribution Spleen: 0.2 ± 0.0 % I.A./g
  Biodistribution Stomach: 0.3 ± 0.1 % I.A./g
  Biodistribution HT-1080.wt: 0.9 ± 0.1 % I.A./g
  Biodistribution HT-1080.hFAP: 4.0 ± 0.6 % I.A./g
[4]; [6]
  Biodistribution Adrenal: 0.3 ± 0.1 % IA/g
  Biodistribution Blood: 0.5 ± 0.1 % IA/g
  Biodistribution Femur: 1.6 ± 0.3 % IA/g
  Biodistribution HT1080.hFAP (FAP-positive tumor): 4.0 ± 0.6 % IA/g
  Biodistribution HT1080.wt (FAP-negative tumor): 0.9 ± 0.1 % IA/g
  Biodistribution Heart: 0.3 ± 0.0 % IA/g
  Biodistribution Intestine: 0.3 ± 0.1 % IA/g
  Biodistribution Kidney: 1.0 ± 0.1 % IA/g
  Biodistribution Liver: 0.6 ± 0.1 % IA/g
  Biodistribution Lung: 0.4 ± 0.0 % IA/g
  Biodistribution Muscle: 0.4 ± 0.1 % IA/g
  Biodistribution Pancreas: 0.5 ± 0.0 % IA/g
  Biodistribution Spleen: 0.2 ± 0.0 % IA/g
  Biodistribution Stomach: 0.3 ± 0.1 % IA/g
[4]; HT-1080.hFAP and HT-1080.wt xenografts
  accumulation in tumor and target-positive tissues: high accumulation in FAP-positive (HT-1080.hFAP) tumor and murine-FAP-positive tissues

## CN(C(=O)CCC(=O)N1CCN(C(=O)CC[C@H](C(=O)O)N2CCN3CCN(CC2)CC(=O)[O][Cu][O]C(=O)C3)CC1)c1ccc2nccc(C(=O)NCC(=O)N3CC(F)(F)C[C@H]3C#N)c2c1 [[^61Cu]Cu-NODAGA-F4]
[3]
  pKd: 8.41 to 8.52

From patent US20240173440A1, “HIGH PURITY COPPER RADIOPHARMACEUTICAL COMPOSITIONS AND DIAGNOSTIC AND THERAPEUTIC USES THEREOF” (Nuclidium AG, priority 2022, published 2024)
